“Also recorded” adds a separate entry of the source.
How the values were obtained:
[1] = system: mouse epiblast stem cell-derived OPCs; assay: In vitro OPC differentiation assay (percentage of MBP+ oligodendrocytes, high-content imaging); assay type: cell-based; conditions: for formation of MBP+ oligodendrocytes from OPCs / formation of MBP+ oligodendrocytes in combination with ketoconazole: 72 h; for formation of MBP+ oligodendrocytes from OPCs: differentiation-permissive conditions; for formation of MBP+ oligodendrocytes in combination with ketoconazole: co-treatment with ketoconazole 2.5 μM
Method: To rigorously assess effects of small molecule and genetic treatments on OPCs, all treatments were assayed in two batches of epiblast stem cell-derived OPCs, and key results were confirmed using mouse primary OPCs. OPCs were generated from two separate EpiSC lines, EpiSC5 (giving rise to OPC-5 OPCs) and 12901 (giving rise to OPC-1 OPCs). EpiSC-derived OPCs were obtained using in vitro differentiation protocols and culture conditions described previously. To ensure uniformity throughout all in vitro screening experiments, EpiSC-derived OPCs were sorted to purity by fluorescence activated cell sorting at passage five with conjugated CD 140a-APC (eBioscience, 17-1401; 1:80) and NG2-AF488 (Millipore, AB[…]; 1:100) antibodies. Sorted batches of OPCs were expanded and frozen down in aliquots. OPCs were thawed into growth conditions for one passage before use in further assays. Cultures were regularly tested and shown to be mycoplasma free. EpiSC-derived OPCs were grown and expanded in poly-ornithine (PO) and laminin-coated flasks with growth medium (DMEM/F12 supplemented with N2-MAX (R&D Systems), B-27 (ThermoFisher), GlutaMax (Gibco), FGF2 ([…], R&D systems, 233-FB-025) and PDGF-AA ([…], R&D systems, 233-AA-050) before harvesting for plating. The cells were seeded onto poly-D-[…]-well CellCarrier plates (PerkinElmer) coated with laminin (Sigma, L2020; 15 μg/ml) using multi-channel pipet. For the experiment, 800,000 cells/mL stock in differentiation medium (DMEM/F12 supplemented with N2-MAX and B-27) was prepared and stored on ice for 2 h. Then, 40,000 cells were seeded per well in differentiation medium and allowed to attach for 30 min before addition of drug. For dose-response testing of all molecules except sterols, a 1000× compound stock in dimethyl sulphoxide (DMSO) was added to assay plates with 0.1 μL solid pin multi-blot replicators (V & P Scientific; VP 409), resulting in a final primary screening concentration of 1×. Sterols were added to cells as an ethanol solution (0.2% final ethanol concentration). Positive control wells (ketoconazole, 2.5 μM) and DMSO vehicle controls were included in each assay plate. Cells were incubated under standard conditions (37° C., 5% CO2) for 3 days and fixed with 4% paraformaldehyde (PFA) in phosphate buffered saline (PBS) for 20 min. Fixed plates were washed with PBS (200 μL per well) twice, permeabilized with 0.1% Triton X-100 and blocked with 10% donkey serum (v/v) in PBS for 40 min. Then, cells were labelled with MBP antibodies (Abcam, ab7349; 1:200) for 16 h at 4° C. followed by detection with Alexa Fluor conjugated secondary antibodies (1:500) for 45 min. Nuclei were visualized by DAPI staining (Sigma; 1 μg/ml). During washing steps, PBS was added using a multi-channel pipet and aspiration was performed using Biotek EL406 washer dispenser (Biotek) equipped with a 96-well aspiration manifold. Plates were imaged on the Operetta High Content Imaging and Analysis system (PerkinElmer) and a set of 6 fields captured from each well resulting in an average of 1200 cells being scored per well. Analysis (PerkinElmer Harmony and Columbus software) began by identifying intact nuclei stained by DAPI; that is, those traced nuclei that were larger than 300 μm^2 in surface area. Each traced nucleus region was then expanded by 50% and cross-referenced with the […] (MBP) stain to identify oligodendrocyte nuclei, and from this the percentage of oligodendrocytes was calculated. In some experiments, the total process length of MBP^+ oligodendrocytes was calculated as previously described.

[2] = system: LPC-lesioned spinal cord; assay: LPC focal demyelination of spinal cord, remyelination histology; assay type: in vivo, mouse; conditions: ifenprodil 10 mg per kg or tamoxifen 2 mg per kg, daily i.p., 8 days from day 4 after lesion
[3] = system: sterol levels in OPCs (cholesterol biosynthesis pathway); assay: GC/MS-based sterol profiling in OPCs; assay type: cell-based, mouse; conditions: 24 h treatment
[4] = target: T1, EBP (Mus musculus, UniProt P70245); assay: EBP enzymatic assay (GC/MS); assay type: biochemical; conditions: small molecules 10 μM, zymostenol 25 μM, 2 h
T1 construct: active EBP was obtained from mouse microsomes; from tissue
T1 sequence (P70245 1-230): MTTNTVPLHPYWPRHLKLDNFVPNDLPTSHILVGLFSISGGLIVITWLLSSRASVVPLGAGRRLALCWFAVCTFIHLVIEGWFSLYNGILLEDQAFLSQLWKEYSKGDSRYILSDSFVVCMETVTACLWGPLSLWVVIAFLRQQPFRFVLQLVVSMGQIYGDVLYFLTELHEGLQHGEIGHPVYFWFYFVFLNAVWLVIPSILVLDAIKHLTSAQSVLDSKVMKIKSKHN

[5] = system: human ERα, GR, LXRβ, NFkB, NRF2, PGR, PPARδ, PPARγ, RARα, RARγ, RXRα, RXRβ, TRα, TRβ, VDR, ERRα, RORα and RORγ; assay: Luciferase reporter assays for 18 nuclear hormone receptors; assay type: cell-based; conditions: 2,2-Dimethylzymosterol 5 μM, Ketoconazole 2.5 μM, TASIN-1 250 nM
Method: FIGS. 6(A-D) illustrate images and graphs showing the effect of 8,9-unsaturated sterols on nuclear hormone receptors and SREBP2 activity: a) Luciferase reporter assays were used to assess if 2,2-Dimethylzymosterol (5 μM), Ketoconazole (2.5 μM), and TASIN-1 (250 nM) modulate human ERα, GR, LXRβ, NFkB, NRF2, PGR, PPARδ, PPARγ, RARα, RARγ, RXRα, RXRβ, TRα, TRβ and VDR transcriptional activity in agonist mode and ERRα, RORα and RORγ in inverse-agonist mode. Measurements are shown as percentage of positive control, n=2 replicates per condition and n=3 replicates per condition for the controls. b) Effects of sterols (T-MAS 5 μM, FF-MAS 10 μM) and small molecules (Ketoconazole 2.5 μM, TASIN-1 100 nM) on the NR2F1-mediated activation of a NGFI-A promoter driven luciferase reporter in comparison to cells containing the reporter only (Ctrl.) or untreated. n=2 replicates per condition, with triplicate measurements per replicate. c) Effects of 2,2-dimethylzymosterol (5 μM) on the NR2C2 mediated activation of a NGFI-A promoter driven luciferase reporter in comparison to cells infected with reporter only, untreated, or treated with a previously reported positive control (all-trans retinoic acid, ATRA, 5 μM). n=2 replicates per condition, with triplicate measurements per replicate. d) LSS, DHCR7, LDLR mRNA levels measured by RT-qPCR following 24 h treatment with DMSO, Mevastatin (2.5 μM), Ro 48-8071 (500 nM), Ketoconazole (2.5 μM), TASIN-1 (100 nM), or Amorolfine (100 nM). n=2 replicates, with triplicate qPCR measurements per replicate. Experiments in panels b-d are representative of two indpedendent experiments.

[6] = system: NR2F1; assay: NR2F1-mediated NGFI-A promoter luciferase reporter; assay type: cell-based; conditions: Ketoconazole 2.5 μM, TASIN-1 100 nM
Method: (§1) FIGS. 6(A-D) illustrate images and graphs showing the effect of 8,9-unsaturated sterols on nuclear hormone receptors and SREBP2 activity: a) Luciferase reporter assays were used to assess if 2,2-Dimethylzymosterol (5 μM), Ketoconazole (2.5 μM), and TASIN-1 (250 nM) modulate human ERα, GR, LXRβ, NFkB, NRF2, PGR, PPARδ, PPARγ, RARα, RARγ, RXRα, RXRβ, TRα, TRβ and VDR transcriptional activity in agonist mode and ERRα, RORα and RORγ in inverse-agonist mode. […]

[7] = system: EpiSC-derived OPCs on microfibers; assay: Oligodendrocyte formation on electrospun microfibers; assay type: cell-based, mouse; conditions: 14 days
Method: A 12-well plate containing Mimetex aligned scaffold (microfiber plate, AMSBIO, AMS.TECL-006-1X, Electrospun poly-L-lactide Scaffold, […] cell crown inserts) was prepared as previously described. Briefly, inserts were sterilized with 70% ethanol and washed with PBS before being coated with polyornithine and laminin. After laminin coating, 100,000 cells/mL of EpiSC-derived OPCs were plated in differentiation medium. After 24 h the media was replaced with fresh media containing small molecule treatments. Every 48 h the media was replaced with fresh compound containing media for a total of 14 days. Plates were fixed with 4% PFA, permeabilized with 0.1% Triton X-100, and blocked with 10% donkey serum (v/v) in PBS for 60 min. Plates were stained for MBP (Abcam, ab7349; 1:100) and DAPI staining (Sigma; 5 μg/ml). After staining, the inserts were moved into new 12-well plate and covered with 2 mL of PBS before imaging in Operetta high content Imaging and analysis system. Plates were imaged on the Operetta High Content Imaging and Analysis system (PerkinElmer) and a set of 8 fields captured from each well resulting in an average of 45,000 cells being scored per well. Analysis (PerkinElmer Harmony and Columbus software) identified intact nuclei stained by DAPI and calculated the MBP signal intensity per cell per well. Microfiber insert tracking images were taken using a Leica DMi8 with a 20× Dry/NA 0.40 objective. Microfiber plate inserts were mounted using Flouromount-G (SouthernBiotech) and allowed to partially harden before coverslips were added and the insert ring was removed. Confocal images were obtained on a Leica SP8 confocal scanning microscope, with 40× oil/NA 1.30 objective. Confocal stacks of 0.336 μm z-steps were taken at 1024×1024. Each fluorophore was excited sequentially and all contrast and brightness changes were applied consistently between images.

[8] = target: T2, rat CYP51 (Rattus norvegicus, UniProt Q64654); assay: biochemical
T2 sequence (Q64654 1-503): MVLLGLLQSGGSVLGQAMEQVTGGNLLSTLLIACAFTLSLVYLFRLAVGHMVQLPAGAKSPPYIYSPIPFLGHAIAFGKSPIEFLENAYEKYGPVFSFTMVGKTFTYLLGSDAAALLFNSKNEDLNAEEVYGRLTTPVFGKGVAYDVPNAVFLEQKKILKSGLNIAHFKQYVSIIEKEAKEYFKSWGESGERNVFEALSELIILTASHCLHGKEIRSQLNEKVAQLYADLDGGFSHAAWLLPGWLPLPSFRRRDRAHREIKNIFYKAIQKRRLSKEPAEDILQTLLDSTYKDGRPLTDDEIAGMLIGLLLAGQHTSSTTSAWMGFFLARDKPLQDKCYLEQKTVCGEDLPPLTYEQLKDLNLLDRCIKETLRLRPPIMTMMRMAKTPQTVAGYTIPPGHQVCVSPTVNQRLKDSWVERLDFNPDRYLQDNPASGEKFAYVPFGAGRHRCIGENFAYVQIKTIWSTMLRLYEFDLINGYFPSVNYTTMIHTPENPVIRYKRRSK

[9] = system: NR2C2; assay: NR2C2-mediated NGFI-A promoter luciferase reporter; assay type: cell-based; conditions: 2,2-dimethylzymosterol 5 μM
Method: as §1

[10] = system: human induced pluripotent stem cell-derived cortical spheroids; assay: Sterol profiling in human iPSC-derived cortical spheroids; assay type: cell-based
[11] = system: LPC-lesioned spinal cord; conditions: previously established by the inventors; cited from earlier work
[12] = system: estrogen receptor; conditions: cited from earlier work

For CC/C(=C(\c1ccccc1)c1ccc(OCCN(C)C)cc1)c1ccccc1 [tamoxifen, Tamoxifen], the “formation of MBP+ oligodendrocytes from OPCs” value (“formation … from OPCs” below) [1] was “enhance the formation of oligodendrocytes with comparable potency”, the “formation of MBP+ oligodendrocytes in combination with ketoconazole” value [1] was “did not enhance differentiation above levels seen for ketoconazole alone” and the “remyelination of LPC lesion” value [2] was “remyelination was widespread throughout the lesion”. The “accumulation of sterol intermediates in OPCs (enzyme inhibition in OPCs, e.g. EBP)” value [3] was “induced accumulation of zymostenol and zymosterol and decreased basal sterol levels; also recorded: inhibit EBP in OPCs” and the “inhibition of EBP enzymatic activity” value [4] was “clear inhibition”.

In the case of COc1ccc(S(=O)(=O)N2CCC(N3CCC(C)CC3)CC2)cc1 [TASIN-1], the “formation … from OPCs” value [1] is reported as “enhanced formation of MBP^+ oligodendrocytes”, the “agonist activity in NHR reporter assays” value [5] is reported as “no molecule showed significant agonist activity in any assay” and the NR2F1-mediated reporter activation [6] is reported as “ineffective”. The “MBP+ oligodendrocyte tracking along and wrapping of microfibers” value [7] was “significantly enhanced MBP+ oligodendrocyte tracking along and wrapping of the microfibers” and the “inhibition of EBP enzymatic activity” value [4] was “clear inhibition”.

With CC(=O)N1CCN(c2ccc(OCC3COC(Cn4ccnc4)(c4ccc(Cl)cc4Cl)O3)cc2)CC1 (stereo not shown) [ketoconazole, Ketoconazole] the “formation … from OPCs” value [1] was “enhanced formation of MBP^+ oligodendrocytes”, the “agonist activity in NHR reporter assays” value [5] was “no molecule showed significant agonist activity in any assay” and the NR2F1-mediated reporter activation [6] was “ineffective”. The “MBP+ oligodendrocyte tracking along and wrapping of microfibers” value [7] was “significantly enhanced MBP+ oligodendrocyte tracking along and wrapping of the microfibers” and the IC50 [8] was 300 to 700 nM.

For CCC(C)(C)c1ccc(CC(C)CN2C[C@@H](C)O[C@@H](C)C2)cc1 (stereo partly shown) [amorolfine, Amorolfine], the “formation … from OPCs” value [1] was “enhanced formation of MBP^+ oligodendrocytes” and the “MBP+ oligodendrocyte tracking along and wrapping of microfibers” value [7] was “significantly enhanced MBP+ oligodendrocyte tracking along and wrapping of the microfibers”.

With CC(C)=CCC[C@@H](C)[C@H]1CC[C@H]2C3=C(CC[C@]12C)[C@@]1(C)CC(C)(C)[C@H](O)C[C@@H]1CC3 [2,2-dimethylzymosterol] the “formation … from OPCs” value [1] was “maximally potent enhancers of oligodendrocyte formation among the 8,9-unsaturated sterols tested”, the EC50 ([1]; OPC-5 and OPC-1, 72 h, read-out: EC50 for enhancing oligodendrocyte formation) was 1000 to 2000 nM and the “formation of MBP+ oligodendrocytes in combination with ketoconazole” value [1] was “no further benefit over ketoconazole alone”. The “agonist activity in NHR reporter assays” value [5] was “no molecule showed significant agonist activity in any assay” and the NR2C2-mediated reporter activation [9] was “ineffective”.

In the case of Clc1ccc(COC(Cn2ccnc2)c2ccc(Cl)cc2Cl)c(Cl)c1 (stereo not shown) [miconazole, Miconazole], the “8,9-unsaturated sterol accumulation in human cortical spheroids” value [10] is given as “led to 8,9-unsaturated sterol accumulation”, the “remyelination in mouse models of demyelination (earlier work)” value [11] is given as “enhances remyelination in mouse models of demyelination” and the IC50 [8] is given as 300 to 700 nM.

In the case of 4-hydroxytamoxifen, the “formation … from OPCs” value [1] is given as “enhance the formation of oligodendrocytes with comparable potency”, the “accumulation of sterol intermediates in OPCs (enzyme inhibition in OPCs, e.g. EBP)” value [3] is given as “inhibit EBP in OPCs” and the “potency as estrogen receptor modulator relative to tamoxifen” value [12] is given as 100 fold.
